Reference: US10336732B2, “1-heterocyclyl isochromanyl compounds and analogs for treating CNS disorders” (Sunovion Pharmaceuticals Inc., priority 2015, dated 2019)

System: mice
Assay: Neuropharmacological assay (SmartCube), behavioral signature of compound-treated mice
Type: in vivo
Details: i.p. 15 min before behavioral test, most efficacious dose(s) of 3 doses
Outline: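 Mice received compound i.p. in NMP/PEG/propylene glycol vehicle at 3 doses, 15 min before testing. Video-captured behavior was algorithmically compared with a reference-drug signature database.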

SMILES	AD: ADHD (probability that behavioral signature matches class)	AG: analgesic (probability that behavioral signature matches class)	AX: anxiolytic (probability that behavioral signature matches class)	CE: cognitive enhancer (probability that behavioral signature matches class)	DP: anti-depressant (probability that behavioral signature matches class)	HA: hallucinogen (probability that behavioral signature matches class)	MS: mood stabilizer (probability that behavioral signature matches class)	PS: anti-psychotic (probability that behavioral signature matches class)	SD: sedative hypnotic (probability that behavioral signature matches class)	UN: uncharacterized CNS activity (probability that behavioral signature matches class)
Fc1ccc2c(c1)[C@H]([C@H]1CCN1)OCC2 [Compound I-87, (R)-2-((R)-7-fluoroisochroman-1-yl)azetidine]	+ (LOQ ≤ + <5%)	++ (5% ≤ ++ <25%)	++ (5% ≤ ++ <25%)	+ (LOQ ≤ + <5%)	++ (5% ≤ ++ <25%)	+ (LOQ ≤ + <5%)	+ (LOQ ≤ + <5%)	+++ (25% ≤ +++ <50%)	+ (LOQ ≤ + <5%)	++ (5% ≤ ++ <25%)
Fc1ccc2c(c1)CCCO[C@@H]2[C@@H]1CCCN1 [Compound I-110, (S)-2-((S)-7-fluoro-1,3,4,5-tetrahydrobenzo[c]oxepin-1-yl)pyrrolidine]	+ (LOQ ≤ + <5%)	++ (5% ≤ ++ <25%)	++ (5% ≤ ++ <25%)	++ (5% ≤ ++ <25%)	++ (5% ≤ ++ <25%)	+ (LOQ ≤ + <5%)	+ (LOQ ≤ + <5%)	++++ (50% ≤ ++++)	++ (5% ≤ ++ <25%)	+++ (25% ≤ +++ <50%)
Fc1ccc2c(c1)CO[C@@H]2[C@H]1CCN1 [Compound I-127, (R)-2-((S)-5-fluoro-1,3-dihydroisobenzofuran-1-yl)azetidine]	+ (LOQ ≤ + <5%)	++ (5% ≤ ++ <25%)	++ (5% ≤ ++ <25%)	++ (5% ≤ ++ <25%)	++ (5% ≤ ++ <25%)	+ (LOQ ≤ + <5%)	+ (LOQ ≤ + <5%)	++ (5% ≤ ++ <25%)	+ (LOQ ≤ + <5%)	++ (5% ≤ ++ <25%)
Fc1ccc2c(c1)CCO[C@H]2[C@H]1CCCN1 [Compound I-12, (R)-2-((R)-6-fluoroisochroman-1-yl)pyrrolidine]	+ (LOQ ≤ + <5%)	++ (5% ≤ ++ <25%)	++ (5% ≤ ++ <25%)	+ (LOQ ≤ + <5%)	++ (5% ≤ ++ <25%)	+ (LOQ ≤ + <5%)	+ (LOQ ≤ + <5%)	++ (5% ≤ ++ <25%)	+ (LOQ ≤ + <5%)	++++ (50% ≤ ++++)
c1cc2c(c3c1CCO[C@@H]3[C@@H]1CCCN1)OCO2 [Compound I-51, (S)-2-((S)-7,9-dihydro-6H-[1,3]dioxolo[4,5-h]isochromen-9-yl)pyrrolidine]	+ (LOQ ≤ + <5%)	++ (5% ≤ ++ <25%)	++ (5% ≤ ++ <25%)	+ (LOQ ≤ + <5%)	+ (LOQ ≤ + <5%)	+ (LOQ ≤ + <5%)	+ (LOQ ≤ + <5%)	+ (LOQ ≤ + <5%)	+ (LOQ ≤ + <5%)	++ (5% ≤ ++ <25%)
C[C@@]1([C@@H]2CCCN2)OCc2cc(F)ccc21 [Compound I-122, (S)-2-((R)-5-fluoro-1-methyl-1,3-dihydroisobenzofuran-1-yl)pyrrolidine]	+ (LOQ ≤ + <5%)	+ (LOQ ≤ + <5%)	++ (5% ≤ ++ <25%)	+ (LOQ ≤ + <5%)	++ (5% ≤ ++ <25%)	+ (LOQ ≤ + <5%)	+ (LOQ ≤ + <5%)	+ (LOQ ≤ + <5%)	+ (LOQ ≤ + <5%)	+ (LOQ ≤ + <5%)
Cc1ccc2c(c1)[C@@H](C1CNC1)OCC2 [Compound I-116, (R)-3-(7-methylisochroman-1-yl)azetidine]	+ (LOQ ≤ + <5%)	+ (LOQ ≤ + <5%)	++ (5% ≤ ++ <25%)	+ (LOQ ≤ + <5%)	++ (5% ≤ ++ <25%)	+ (LOQ ≤ + <5%)	+ (LOQ ≤ + <5%)	+++ (25% ≤ +++ <50%)	++ (5% ≤ ++ <25%)	+ (LOQ ≤ + <5%)
N#Cc1ccc2c(c1)[C@@H]([C@@H]1CCCN1)OCC2 [Compound I-39, (S)-1-((S)-pyrrolidin-2-yl)isochroman-7-carbonitrile]	+ (LOQ ≤ + <5%)	++ (5% ≤ ++ <25%)	++ (5% ≤ ++ <25%)	++ (5% ≤ ++ <25%)	+ (LOQ ≤ + <5%)	+ (LOQ ≤ + <5%)	+ (LOQ ≤ + <5%)	+ (LOQ ≤ + <5%)	+ (LOQ ≤ + <5%)	++ (5% ≤ ++ <25%)
Fc1ccc2c(c1)[C@H]([C@@H]1CCN1)OCC2 [Compound I-86, (S)-2-((R)-7-fluoroisochroman-1-yl)azetidine]	+ (LOQ ≤ + <5%)	+++ (25% ≤ +++ <50%)	+++ (25% ≤ +++ <50%)	++ (5% ≤ ++ <25%)	++ (5% ≤ ++ <25%)	+ (LOQ ≤ + <5%)	+ (LOQ ≤ + <5%)	+++ (25% ≤ +++ <50%)	++ (5% ≤ ++ <25%)	++ (5% ≤ ++ <25%)
c1ccc2c(c1)CCO[C@H]2[C@@H]1CCCN1 [Compound I-18, (S)-2-((R)-isochroman-1-yl)pyrrolidine]	+ (LOQ ≤ + <5%)	++ (5% ≤ ++ <25%)	+++ (25% ≤ +++ <50%)	++ (5% ≤ ++ <25%)	++ (5% ≤ ++ <25%)	+ (LOQ ≤ + <5%)	++ (5% ≤ ++ <25%)	+++ (25% ≤ +++ <50%)	++ (5% ≤ ++ <25%)	++ (5% ≤ ++ <25%)
Cc1cccc2c1[C@@H]([C@@H]1CCCN1)OCCC2 [Compound I-101, (S)-2-((S)-9-methyl-1,3,4,5-tetrahydrobenzo[c]oxepin-1-yl)pyrrolidine]	+ (LOQ ≤ + <5%)	+ (LOQ ≤ + <5%)	++ (5% ≤ ++ <25%)	+ (LOQ ≤ + <5%)	++ (5% ≤ ++ <25%)	+ (LOQ ≤ + <5%)	+ (LOQ ≤ + <5%)	+ (LOQ ≤ + <5%)	+ (LOQ ≤ + <5%)	+ (LOQ ≤ + <5%)

Same assay, conditions: i.p. 15 min before behavioral test, most efficacious dose(s) of 3 doses

SMILES	XG: anxiogenic (probability that behavioral signature matches class)
Fc1ccc2c(c1)[C@H]([C@H]1CCN1)OCC2 [Compound I-87, (R)-2-((R)-7-fluoroisochroman-1-yl)azetidine]	+ (LOQ ≤ + <5%)
Fc1ccc2c(c1)CCCO[C@@H]2[C@@H]1CCCN1 [Compound I-110, (S)-2-((S)-7-fluoro-1,3,4,5-tetrahydrobenzo[c]oxepin-1-yl)pyrrolidine]	+ (LOQ ≤ + <5%)
Fc1ccc2c(c1)CO[C@@H]2[C@H]1CCN1 [Compound I-127, (R)-2-((S)-5-fluoro-1,3-dihydroisobenzofuran-1-yl)azetidine]	+ (LOQ ≤ + <5%)
Fc1ccc2c(c1)CCO[C@H]2[C@H]1CCCN1 [Compound I-12, (R)-2-((R)-6-fluoroisochroman-1-yl)pyrrolidine]	+ (LOQ ≤ + <5%)
c1cc2c(c3c1CCO[C@@H]3[C@@H]1CCCN1)OCO2 [Compound I-51, (S)-2-((S)-7,9-dihydro-6H-[1,3]dioxolo[4,5-h]isochromen-9-yl)pyrrolidine]	+ (LOQ ≤ + <5%)
C[C@@]1([C@@H]2CCCN2)OCc2cc(F)ccc21 [Compound I-122, (S)-2-((R)-5-fluoro-1-methyl-1,3-dihydroisobenzofuran-1-yl)pyrrolidine]	+ (LOQ ≤ + <5%)
Cc1ccc2c(c1)[C@@H](C1CNC1)OCC2 [Compound I-116, (R)-3-(7-methylisochroman-1-yl)azetidine]	+ (LOQ ≤ + <5%)
N#Cc1ccc2c(c1)[C@@H]([C@@H]1CCCN1)OCC2 [Compound I-39, (S)-1-((S)-pyrrolidin-2-yl)isochroman-7-carbonitrile]	+ (LOQ ≤ + <5%)
Fc1ccc2c(c1)[C@H]([C@@H]1CCN1)OCC2 [Compound I-86, (S)-2-((R)-7-fluoroisochroman-1-yl)azetidine]	+ (LOQ ≤ + <5%)
c1ccc2c(c1)CCO[C@H]2[C@@H]1CCCN1 [Compound I-18, (S)-2-((R)-isochroman-1-yl)pyrrolidine]	+ (LOQ ≤ + <5%)
Cc1cccc2c1[C@@H]([C@@H]1CCCN1)OCCC2 [Compound I-101, (S)-2-((S)-9-methyl-1,3,4,5-tetrahydrobenzo[c]oxepin-1-yl)pyrrolidine]	+ (LOQ ≤ + <5%)
